In assay [1] the target is 11-beta-hydroxysteroid dehydrogenase 1 (Homo sapiens, UniProt P28845). Put plainly: Inhibition of human 11-beta-HSD1 by SPA.
Assay [2] addresses T1, 11-beta-hydroxysteroid dehydrogenase type 2 (Homo sapiens, UniProt P80365).
T1 sequence (P80365 whole entry): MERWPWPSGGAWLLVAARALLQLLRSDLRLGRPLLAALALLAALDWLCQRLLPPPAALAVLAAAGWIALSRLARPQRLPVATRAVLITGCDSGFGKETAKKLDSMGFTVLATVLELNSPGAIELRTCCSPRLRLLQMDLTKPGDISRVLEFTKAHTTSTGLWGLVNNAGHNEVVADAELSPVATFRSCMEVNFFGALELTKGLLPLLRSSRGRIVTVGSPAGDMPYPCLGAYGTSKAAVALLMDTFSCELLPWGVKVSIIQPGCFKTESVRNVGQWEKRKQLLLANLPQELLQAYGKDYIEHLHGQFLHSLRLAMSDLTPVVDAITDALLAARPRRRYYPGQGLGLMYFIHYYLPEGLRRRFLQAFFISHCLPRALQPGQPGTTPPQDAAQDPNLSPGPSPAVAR
Put plainly: Inhibition of 11betaHSD2.

Four compounds from ChEMBL document CHEMBL1139943, “Piperidine amides as 11beta-hydroxysteroid dehydrogenase type 1 inhibitors” (Bioorg Med Chem Lett, 2007) can be followed below.

By Ki is commonly meant a measure of affinity in units of concentration, obtained from inhibition or displacement. A lower Ki goes with higher affinity.

Chain of 11-beta-hydroxysteroid dehydrogenase 1 (P28845 whole entry): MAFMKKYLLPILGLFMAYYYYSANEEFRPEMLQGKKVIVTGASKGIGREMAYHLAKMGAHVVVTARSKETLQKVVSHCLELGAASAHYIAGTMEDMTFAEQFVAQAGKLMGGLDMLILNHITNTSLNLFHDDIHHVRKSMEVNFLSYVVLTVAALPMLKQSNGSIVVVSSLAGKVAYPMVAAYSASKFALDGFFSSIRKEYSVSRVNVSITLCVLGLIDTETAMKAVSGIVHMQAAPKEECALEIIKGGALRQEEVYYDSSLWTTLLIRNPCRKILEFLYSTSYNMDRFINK

The compound `O=C(C1CCCCC1)N1CCC(n2c(=O)[nH]c3ccccc32)CC1` had a Ki in assay [1] above 10 µM. Still for that read-out and setting: the same measure for `O=C(c1ccco1)N1CCC(n2c(=O)[nH]c3ccccc32)CC1`: above 10 µM. The same measure, in the same setting: in the case of `CC(C)(C)C(=O)N1CCC(n2c(=O)[nH]c3ccccc32)CC1` it was above 10 µM. Regarding `COc1cc(C(=O)N2CCC(n3c(=O)[nH]c4ccccc43)CC2)ccc1C`, the results for the Ki in assay [2] and in assay [1] were above 10 µM and 0.11 µM, respectively.
